# Read-outs that look alike come from different tables or passages of the source.
# Experiments:
# Format in all cases: cell-based
# [1] = tested on: a bacterial strain
# [2] = tested on: E. faecium; conditions: for MBI 26 MIC, +Teicoplanin: in combination with teicoplanin; for MIC in combination: Teicoplanin + MBI 26
# [3] = tested on: E. faecalis; conditions: for MIC Alone: agent alone; for MBI 26 MIC, +Teicoplanin: in combination with teicoplanin
substance,measurement,setting,value
KWKSFIKKLTSAAKKVVTTAKPLISS [MBI 26],killing in time kill assay,[1],greater killing than either peptide or antibiotic agent alone
same,MIC Alone,"[2]; E. faecium 97001 VanB, agent alone",64 µg/mL
same,"MBI 26 MIC, +Teicoplanin",[2]; E. faecium 97001 VanB,4 µg/mL
same,MIC Alone,"[2]; E. faecium 97002 VanB, agent alone",64 µg/mL
same,"MBI 26 MIC, +Teicoplanin",[2]; E. faecium 97002 VanB,1 µg/mL
same,MIC Alone,"[2]; E. faecium 97003 VanB, agent alone",64 µg/mL
same,"MBI 26 MIC, +Teicoplanin",[2]; E. faecium 97003 VanB,1 µg/mL
same,MIC Alone,"[2]; E. faecium 97005 VanB, agent alone",64 µg/mL
same,"MBI 26 MIC, +Teicoplanin",[2]; E. faecium 97005 VanB,2 µg/mL
same,MIC Alone,"[2]; E. faecium 97006 VanB, agent alone",64 µg/mL
same,"MBI 26 MIC, +Teicoplanin",[2]; E. faecium 97006 VanB,4 µg/mL
same,MIC Alone,"[2]; E. faecium 97007 VanB, agent alone",64 µg/mL
same,"MBI 26 MIC, +Teicoplanin",[2]; E. faecium 97007 VanB,1 µg/mL
same,MIC Alone,"[2]; E. faecium 97008 VanB, agent alone",64 µg/mL
same,"MBI 26 MIC, +Teicoplanin",[2]; E. faecium 97008 VanB,4 µg/mL
same,MIC Alone,"[2]; E. faecium 97009 VanB, agent alone",32 µg/mL
same,"MBI 26 MIC, +Teicoplanin",[2]; E. faecium 97009 VanB,1 µg/mL
same,MIC Alone,"[2]; E. faecium 97010 VanB, agent alone",64 µg/mL
same,"MBI 26 MIC, +Teicoplanin",[2]; E. faecium 97010 VanB,4 µg/mL
same,MIC Alone,"[2]; E. faecium 97011 VanB, agent alone",64 µg/mL
same,"MBI 26 MIC, +Teicoplanin",[2]; E. faecium 97011 VanB,4 µg/mL
same,MIC Alone,"[2]; E. faecium 97012 VanB, agent alone",64 µg/mL
same,"MBI 26 MIC, +Teicoplanin",[2]; E. faecium 97012 VanB,4 µg/mL
same,MIC Alone,"[2]; E. faecium 97013 VanB, agent alone",64 µg/mL
same,"MBI 26 MIC, +Teicoplanin",[2]; E. faecium 97013 VanB,8 µg/mL
same,MIC Alone,"[2]; E. faecium 97014 VanB, agent alone",32 µg/mL
same,"MBI 26 MIC, +Teicoplanin",[2]; E. faecium 97014 VanB,4 µg/mL
same,MIC Alone,"[2]; E. faecium 97015 VanB, agent alone",64 µg/mL
same,"MBI 26 MIC, +Teicoplanin",[2]; E. faecium 97015 VanB,4 µg/mL
same,MIC Alone,"[2]; E. faecium 97016 VanB, agent alone",64 µg/mL
same,"MBI 26 MIC, +Teicoplanin",[2]; E. faecium 97016 VanB,4 µg/mL
same,MIC Alone,[2]; E. faecium 97017 VanA,64 µg/mL
same,MIC in combination,[2]; E. faecium 97017 VanA,4 µg/mL
same,MIC Alone,[2]; E. faecium 97018 VanA,64 µg/mL
same,MIC in combination,[2]; E. faecium 97018 VanA,8 µg/mL
same,MIC Alone,[2]; E. faecium 97019 VanA,64 µg/mL
same,MIC in combination,[2]; E. faecium 97019 VanA,16 µg/mL
same,MIC Alone,[2]; E. faecium 97020 VanA,64 µg/mL
same,MIC in combination,[2]; E. faecium 97020 VanA,16 µg/mL
same,MIC Alone,[2]; E. faecium 97021 VanA,64 µg/mL
same,MIC in combination,[2]; E. faecium 97021 VanA,32 µg/mL
same,MIC Alone,[2]; E. faecium 97022 VanA,64 µg/mL
same,MIC in combination,[2]; E. faecium 97022 VanA,4 µg/mL
same,MIC Alone,[2]; E. faecium 97023 VanA,64 µg/mL
same,MIC in combination,[2]; E. faecium 97023 VanA,4 µg/mL
same,MIC Alone,[2]; E. faecium 97024 VanA,64 µg/mL
same,MIC in combination,[2]; E. faecium 97024 VanA,8 µg/mL
same,MIC Alone,[2]; E. faecium 97025 VanA,16 µg/mL
same,MIC in combination,[2]; E. faecium 97025 VanA,4 µg/mL
same,MIC Alone,[2]; E. faecium 97026 VanA,64 µg/mL
same,MIC in combination,[2]; E. faecium 97026 VanA,16 µg/mL
same,MIC Alone,[2]; E. faecium 97027 VanA,64 µg/mL
same,MIC in combination,[2]; E. faecium 97027 VanA,8 µg/mL
same,MIC Alone,[2]; E. faecium 97028 VanA,8 µg/mL
same,MIC in combination,[2]; E. faecium 97028 VanA,8 µg/mL
same,MIC Alone,[2]; E. faecium 97029 VanA,64 µg/mL
same,MIC in combination,[2]; E. faecium 97029 VanA,8 µg/mL
same,MIC Alone,[2]; E. faecium 97030 VanA,64 µg/mL
same,MIC in combination,[2]; E. faecium 97030 VanA,32 µg/mL
same,MIC Alone,[2]; E. faecium 97031 VanA,64 µg/mL
same,MIC in combination,[2]; E. faecium 97031 VanA,32 µg/mL
same,MIC Alone,[2]; E. faecium 97032 VanA,64 µg/mL
same,MIC in combination,[2]; E. faecium 97032 VanA,8 µg/mL
same,MIC Alone,[2]; E. faecium 97033 VanA,64 µg/mL
same,MIC in combination,[2]; E. faecium 97033 VanA,8 µg/mL
same,MIC Alone,[2]; E. faecium 97034 VanA,64 µg/mL
same,MIC in combination,[2]; E. faecium 97034 VanA,8 µg/mL
same,MIC Alone,[2]; E. faecium 97035 VanA,64 µg/mL
same,MIC in combination,[2]; E. faecium 97035 VanA,0.5 µg/mL
same,MIC Alone,[2]; E. faecium 97036 VanA,8 µg/mL
same,MIC in combination,[2]; E. faecium 97036 VanA,4 µg/mL
same,MIC Alone,[3]; E. faecalis 97040 VanB,64 µg/mL
same,"MBI 26 MIC, +Teicoplanin",[3]; E. faecalis 97040 VanB,8 µg/mL
same,MIC Alone,[3]; E. faecalis 97041 VanB,64 µg/mL
same,"MBI 26 MIC, +Teicoplanin",[3]; E. faecalis 97041 VanB,8 µg/mL

# From US6503881B2 (priority 1996, dated 2003)
